Row | melting point [°C] | SMILES
1 | 136 to 138 | CON(C(=O)C1=C(O)C(=O)N(C)C1)C(C)c1ccc(F)cc1 (stereo not drawn)
2 | 298 to 302 | Cc1[nH]c(C)c(-c2ccc(Oc3ccc(OC(F)(F)F)cc3)cc2)c(=O)c1Cl
3 | 313 | Cc1sc(S(N)(=O)=O)cc1NC(=O)c1cnn2c(C(F)F)cc(-c3ccc(C(F)(F)F)cc3)nc12
4 | 87 to 88 | CCOC(=O)c1ccc(NCCCOc2ccc(Cl)cc2)cc1
5 | > 250 | N#CNC1NN=C(c2ccc3ccccc3c2)O1 (stereo not drawn)
6 | < 70 | Cc1cc(OCCN2CCOCC2)nn1-c1ccc2c(O)cccc2c1
7 | 130 to 134 | CNCc1ccc2c(c1)C(Cc1ccnc(F)c1)(Cc1ccnc(F)c1)c1ccccc1-2
8 | 248 to 249 | O=C(O)Cn1c(-c2ccc(Cl)c(Cl)c2)nc2cccnc21
9 | 161 | NCc1cc(Cl)c(NC(=O)CN2CCN(CCCCC(c3ccc(F)cc3)c3ccc(F)cc3)CC2C(N)=O)c(Cl)c1 (stereo not drawn)
10 | 228 to 230 | CCc1nnc(-c2ccc(-c3ccccc3)cc2)n1-c1cccc2cnccc12
11 | 159 to 161 | CN(C)C=Nc1ccc(-c2ncnn2-c2ccc(F)cc2)cc1
12 | 170 to 172 | CCCN(Cc1ccc(-c2ccccc2-c2nc(=S)o[nH]2)cc1)c1nc(C)ncc1C(=O)OCC
13 | 227 to 228 | CCCc1nn2ncc(C(=O)OCC)c2n1Cc1ccc(-c2ccccc2-c2nc(=O)o[nH]2)cc1
14 | 198 to 200 | CC1=C(c2ccncc2)SC(c2ccc(O)cc2)C(=O)N1 (stereo not drawn)
15 | 200 to 204 | O=S1c2ccccc2Sc2ccc(-c3nnn[nH]3)cc21 (stereo not drawn)
16 | 183 to 185 | Cc1ccccc1C(=O)Nc1ccc(C(=O)N2CCCC(N(C)C)c3ccccc32)c(C)c1 (stereo not drawn)
17 | 225 to 228 | COc1ccc(-c2csc(Nc3ncccn3)n2)cc1OC
18 | 215 to 216 | COc1ccc(-n2c(=O)oc(=O)c3ccccc32)cc1
19 | 125 to 126 | O=C(/C=C/c1ccc(S(=O)(=O)N2CCN(C(c3ccc(F)cc3)c3ccc(F)cc3)CC2)cc1)NO
20 | 129 to 130 | CSc1nn(C)c(=O)n1-c1ccccc1Oc1ccccc1
21 | 126 to 127 | CC(C)c1ccc(C2c3cc(NC(=O)CC(C)(C)C)ccc3OC2(C)C)cc1 (stereo not drawn)
22 | 119 to 120 | COCNC(=O)c1c(-c2ccc(Cl)cc2)nsc1-c1ccccc1
23 | 110 to 111 | CCOC(=O)c1nn(-c2ccccc2)c2c1CCCc1ccccc1-2
24 | 207 to 209 | Cc1ccc(NC(=O)c2ccc3oc(-c4c(C)cc(OCC(=O)N(C)C)cc4C)nc3c2)cc1C
25 | 149 | N#Cc1ccc(-c2ccc(F)cc2)nc1
26 | 195 | CC1(C)c2cc(I)ccc2-c2ccc(I)cc21

The remaining lines, values behind:

Row | SMILES | melting point [°C]
27 | O=C(O)C1CCCN(C(=O)COC2CCN(C(=O)OCc3ccccc3)CC2)C1 (stereo not drawn) | 102 to 104
28 | CC(=O)OCc1cccc(N)c1I | 80 to 81
29 | NC(=O)c1ncn2c1[C@@H]1CCCN1C(=O)c1cc(F)ccc1-2 | 239 to 240
30 | CNC(=O)Oc1cccc(C2CCCN2Cc2ccncc2)c1 (stereo not drawn) | 92 to 105
31 | N#Cc1cc(C(=O)N=C(N)N)cc(-n2cccc2)c1 | 198 to 200
32 | CCOC(=O)C1=C(C(F)(F)F)Nc2n[nH]cc2C1c1ccc(C(=O)OCC)cc1 (stereo not drawn) | 157 to 160
33 | O=C(CCCCCOc1cc(-c2ccccc2)c2ccccc2n1)N1CCCC1 | 52 to 54
34 | O=[N+]([O-])c1cc(CO)c(Cl)cc1F | 39 to 41
35 | O=C(O)COc1cccc2c1CCc1sc(SC(c3ccccc3)c3ccccc3)nc1-2 | 176 to 179
36 | O=C(c1oc2ccc(N3CCN(Cc4ccccc4)CC3)cc2c1Br)N(Cc1ccccc1)Cc1ccccc1 | 196 to 198
37 | CN1C2CCC1CC(c1ccc3ccccc3c1)C2 (stereo not drawn) | 77 to 79
38 | COc1ccc(CNC(=O)C2=C(C(=O)Nc3cc(OC4CCCC4)c(Cl)cc3F)CCCC2)cc1 | 161 to 162
39 | CNC(=O)c1cccc(Nc2nc(Nc3ccc4c(c3)CCCC(=O)N4C)ncc2Cl)c1 | 215 to 217
40 | CCOn1c(OC)n[nH]c1=O | 57
41 | O=C1NCCCc2cc(CCN3CCC(c4noc5cc(F)ccc45)CC3)sc21 | 192 to 194
42 | CS(=O)CC(=N)c1ccccc1O (stereo not drawn) | 194 to 195
43 | CCC(C)(C)NC(=O)NC(C)C#N (stereo not drawn) | 129 to 130
44 | CC(C)n1nc(-c2sc(NC(=O)c3ccc(CNCCN4CCCCC4)cc3)nc2-c2ccccc2)ccc1=O | 134 to 136
45 | COc1ccc(C=O)c(OC)c1Br | 80
46 | C#Cc1cc(Oc2cnc(NC(CO)CO)nc2N)c(C(C)C)cc1OC | 136 to 139
47 | O=[N+]([O-])c1cnn2c1-c1ccccc1NC2C1CCCCC1 (stereo not drawn) | 150 to 152
48 | C=C1C(=N)NC(=O)N1Cc1ccccc1 | 225
49 | CCCCNC(=S)c1cccc(NC(=O)N(C)C)c1 | 68 to 71
50 | FC(F)(F)c1ccccc1-c1nnc(Nc2cccc(SCc3ccccc3-c3ccccc3)c2)s1 | 73 to 75

Row | SMILES | melting point [°C]
51 | CCSc1c(N)cnc2cc(Cl)ccc12 | 105 to 106
52 | COc1cc2c(cc1OC)-c1c(C=O)c(C#N)cn1CC2 | 220 to 221
53 | Fc1ccc2c(C3CCNCC3)n[nH]c2c1 | 214 to 216
54 | COC(=O)[C@@H]1C[C@H](C(=O)O)Nc2cc(Cl)ccc21 (relative stereo) | 122 to 124
55 | COc1ccc2c(c1)CC(=O)c1cc(C(C)C(N)=O)ccc1S2 (stereo not drawn) | 186 to 188
56 | CCCCCCCCCCOC(=O)CS(=O)(=O)Nc1c(C(C)C)cccc1C(C)C | 65 to 67
57 | CC1(C)C=C(C(=O)CCCN2CCC(C(O)(c3ccccc3)c3ccccc3)CC2)C=CC1CCO (stereo not drawn) | 135 to 137
58 | C=C(CC(C)C)C(=O)O | 101 to 105
59 | CC12CCC(=O)C=C1CCC1C2=CCC2(C)C1CCC2(O)C(=O)CO (stereo not drawn) | 248
60 | CCOC(Cn1cncn1)(c1ccc(F)cc1F)C(F)(F)S(=O)(=O)CCO (stereo not drawn) | 150 to 153
61 | Cc1nc(-c2ccc3c(c2)CCCC3)c(CCC(=O)O)o1 | 135 to 136
62 | C=C(C(=O)O)c1ccc2c(c1)Cc1ccccc1-2 | 183 to 185
63 | CN(C)c1ccc(NC(=O)N(C[C@@H]2CCCC[C@H]2CN(C(=O)Nc2ccc(N(C)C)cc2)C2CCCCC2)C2CCCCC2)cc1 (relative stereo) | 108 to 114
64 | CC(=O)Nc1nc(NCC(O)CO)c(Cl)nc1[N+](=O)[O-] (stereo not drawn) | 130 to 131
65 | CC(C)(C)OC(=O)[C@@H]1CCCN2C(=O)CC[C@H](NS(C)(=O)=O)C(=O)N12 | 68 to 70
66 | C=CCOC(=O)OCc1ccc(C#N)cc1C(=O)O | 81 to 83
67 | CNC(=NC#N)NCCSCc1nccc(N)n1 | 189 to 190
68 | O=CC(O)C(O)C(CO)OC1OC(CO)C(O)C(O)C1O (stereo not drawn) | 171 to 176
69 | Nc1ccc(Cl)c(C(=O)c2sc(Nc3ccc4nc[nH]c4c3)nc2N)c1Cl | 235 to 237
70 | NC(=O)c1cc(Cl)c([N+](=O)[O-])cc1[N+](=O)[O-] | 201 to 203
71 | O=Cc1cc2cc(Cl)c(Cl)cc2[nH]1 | 188 to 190
72 | COc1cc(C(=O)OCc2ccccc2)ccc1S(=O)(=O)Cl | 72
73 | CCOC(=O)/C=C(/c1ccc(CC)cc1)c1cc(Cl)cc(Cl)c1 | 73 to 75

Reference: a melting point compilation (Tetko et al.; mined from patent text by program, amines drawn as free bases though some values may be those of a salt)
